Data: patent US9340819B2, “Method for detecting the presence of carbapenemase-producing bacteria in a sample” (priority 2011, dated 2016)
Values after ≈ are worked out from the molar mass of the structure shown.

How the values were obtained:
[1] = tested on: E. coli; experiment: MIC by Etest on Mueller-Hinton agar (Example 1); assay type: cell-based, Escherichia coli; conditions: for MIC: Escherichia coli
Description: (§1) Prior to performing the method of the invention, susceptibility testings were performed by determining Minimum Inhibitory Concentration (MIC) values by the Etest® (AB bioMérieux; Solna, Sweden) on Mueller-Hinton agar plates at 37° C. and results of susceptibility testing were recorded according to the Clinical and Laboratory Standards Institute (CLSI) guidelines as modified in June 2010 (18). The breakpoints for imipenem are S≦1 μg/ml (susceptibility) and R≧4 μg/ml (resistant). As for those for ertapenem, they are S≦0.25 μg/ml and R≧1 μg/ml (see Tables 1 and 2).

[2] = tested on: C. freundii; experiment: MIC by Etest on Mueller-Hinton agar (Example 1); assay type: cell-based; conditions: Citrobacter freundii; C. freundii STE (13); NDM-1 + OXA-1 + OXA-9 + OXA-10 + CTX-M-15 + TEM-1
Description: as §1

[3] = tested on: E. cloacae; experiment: MIC by Etest on Mueller-Hinton agar (Example 1); assay type: cell-based; conditions: Enterobacter cloacae
Description: as §1

[4] = tested on: K. pneumoniae; experiment: MIC by Etest on Mueller-Hinton agar (Example 1); assay type: cell-based; conditions: Klebsiella pneumoniae
Description: as §1

[5] = tested on: P. mirabilis; experiment: MIC by Etest on Mueller-Hinton agar (Example 1); assay type: cell-based; conditions: Proteus mirabilis, plasmid mediated cephalosporinase ACC-1
Description: as §1

[6] = tested on: P. stuartii; experiment: MIC by Etest on Mueller-Hinton agar (Example 1); assay type: cell-based; conditions: Providencia stuartii, NDM-1 + OXA-1 + CMY-6
Description: as §1

[7] = tested on: K. pneumoniae; experiment: MIC of carbapenem by Etest (Example 2); assay type: cell-based, Klebsiella pneumoniae
Description: (§2) All strains had previously been characterized for their β-lactamase content at the molecular level. Minimum inhibitory concentration of carbapenem were determined using the Etest® (AB bioMérieux, Solna, Sweden) and results were recorded according to US guidelines (CLSI), as updated in 2011.

[8] = tested on: E. cloacae; experiment: MIC of carbapenem by Etest (Example 2); assay type: cell-based, Enterobacter cloacae
Description: as §2

[9] = tested on: E. aerogenes; experiment: MIC of carbapenem by Etest (Example 2); assay type: cell-based, Enterobacter aerogenes
Description: as §2

[10] = tested on: S. marcescens; experiment: MIC of carbapenem by Etest (Example 2); assay type: cell-based, Serratia marcescens
Description: as §2

[11] = tested on: E. sakazaki; experiment: MIC of carbapenem by Etest (Example 2); assay type: cell-based; conditions: ESBL + decreased membrane permeability; E. sakazaki CTX-M-15, n=1
Description: as §2

[12] = tested on: K. ozonae; experiment: MIC of carbapenem by Etest (Example 2); assay type: cell-based; conditions: K. ozonae KPC-3, n=1
Description: as §2

[13] = tested on: Salmonella spp.; experiment: MIC of carbapenem by Etest (Example 2); assay type: cell-based; conditions: Salmonella spp. KPC-2, n=1
Description: as §2

[14] = tested on: P. stuartii; experiment: MIC of carbapenem by Etest (Example 2); assay type: cell-based, Providencia stuartii; conditions: P. stuartii NDM-1, n=1
Description: as §2

[15] = tested on: P. rettgeri; experiment: MIC of carbapenem by Etest (Example 2); assay type: cell-based, Proteus rettgeri
Description: as §2

[16] = tested on: P. mirabilis; experiment: MIC of carbapenem by Etest (Example 2); assay type: cell-based, Proteus mirabilis; conditions: Plasmid mediated AmpC or chromosomal AmpC + decreased membrane permeability; P. mirabilis ACC-1, n=1
Description: as §2

[17] = tested on: M. morganii; experiment: MIC of carbapenem by Etest (Example 2); assay type: cell-based, Morganella morganii; conditions: Plasmid mediated AmpC or chromosomal AmpC + decreased membrane permeability; M. morganii Overexpressed cephalosporinase, n=2
Description: as §2

In the case of `C[C@@H](O)[C@H]1C(=O)N2C(C(=O)O)=C(S[C@@H]3CN[C@H](C(=O)Nc4cccc(C(=O)O)c4)C3)[C@H](C)[C@H]12` [ERT, ertapenem], the MICs ([1]; E. coli Ec13 SYD (23), plasmid mediated cephalosporinase CMY-2) is reported as 0.06 µg/mL, the MICs ([1]; E. coli J53 (29), wild-type) is reported as 0.06 µg/mL and the MICs ([1]; E. coli VMC (24), plasmid mediated cephalosporinase CMY-10) is reported as 0.06 µg/mL. For the same molecule, the MIC ([1]; E. coli 271 AUS (12), NDM-1 + CTX-M-15 + TEM-1) was 8 µg/mL, the MIC ([1]; E. coli 5649 GEN, NDM-1 + OXA-1 + CMY-30 + TEM-1) was 32 µg/mL and the MIC ([1]; E. coli (18), ESBL CTX-M-14) was 0.06 µg/mL (≈ 0.126 µM). The MIC ([1]; E. coli (20), ESBL VEB-1) was 0.06 µg/mL (≈ 0.126 µM), the MIC ([1]; E. coli ALL, NDM-1 + OXA-1 + OXA-2 + CTX-M-15 + TEM-1) was 8 µg/mL and the MIC ([1]; E. coli BOU, OXA-48 + CTX-M-15) was 1.5 µg/mL. The MIC ([1]; E. coli COL (2), KPC-2) was 0.5 µg/mL (≈ 1.05 µM), the MIC ([1]; E. coli DIH, VIM-19) was 2 µg/mL (≈ 4.21 µM) and the MIC ([1]; E. coli DIN, KPC) was greater than 32 µg/mL. The MIC ([1]; E. coli FOR, ESBL CTX-M-15) was 0.06 µg/mL (≈ 0.126 µM), the MIC ([1]; E. coli HAN (7), OXA-48) was 1.5 µg/mL (≈ 3.15 µM) and the MIC ([1]; E. coli MAD (14), VIM-1 + CTX-M-3) was 0.5 µg/mL. For the same molecule, the MIC ([1]; E. coli MAD, IMP-1) was 3 µg/mL (≈ 6.31 µM), the MIC ([1]; E. coli PSP, KPC-2) was 2 µg/mL (≈ 4.21 µM) and the MIC ([1]; E. coli RIC, NDM-1 + OXA-1 + OXA-10 + CMY-16) was 8 µg/mL. The MIC [2] was greater than 32 µg/mL, the MIC ([3]; E. cloacae 2185, ESBL OXA-163) was 0.19 µg/mL (≈ 0.4 µM) and the MIC ([3]; E. cloacae (1), KPC-2) was 6 µg/mL (≈ 12.6 µM). The MIC ([3]; E. cloacae (17), ESBL CTX-M-15) was 0.19 µg/mL (≈ 0.4 µM), the MIC ([3]; E. cloacae ARF (25), overexpression of chromosomal cephalosporinase AmpC) was 0.5 µg/mL (≈ 1.05 µM) and the MIC ([3]; E. cloacae BLA, overexpression of chromosomal cephalosporinase AmpC) was 0.5 µg/mL (≈ 1.05 µM). For the same molecule, the MIC ([3]; E. cloacae CON (26), overexpression of chromosomal cephalosporinase AmpC) was 0.75 µg/mL (≈ 1.58 µM), the MIC ([3]; E. cloacae IR38, NDM-1 + CTX-M-15) was greater than 32 µg/mL and the MIC ([3]; E. cloacae TUR (6), OXA-48 + SHV-5) was 1 µg/mL. The MIC ([3]; E. cloacae, ESBL VEB-1) was 0.19 µg/mL (≈ 0.4 µM), the MIC ([4]; CIP53153, K. pneumoniae CIP53153 (30), wild-type) was 0.19 µg/mL (≈ 0.4 µM) and the MIC ([4]; K. pneumoniae 1 OMA (11), NDM-1 + CTX-M-15 + OXA-1 + OXA-9) was greater than 32 µg/mL. It also gave an MIC ([4]; K. pneumoniae 2 OMA, NDM-1 + OXA-1) greater than 32 µg/mL, an MIC ([4]; K. pneumoniae 7 AFR, NDM-1 + OXA-1 + CTX-M-15 + CMY-6 + TEM-1) greater than 32 µg/mL and an MIC ([4]; K. pneumoniae 6299 (19), ESBL OXA-163) of 0.19 µg/mL (≈ 0.4 µM). For the same molecule, the MIC ([4]; K. pneumoniae 6759 GEN, NDM-1 + CTX-M-15 + OXA-1 + OXA-9 + OXA-10 + CMY16) was 32 µg/mL, the MIC ([4]; K. pneumoniae (16), ESBL CTX-M-15) was 0.19 µg/mL (≈ 0.4 µM) and the MIC ([4]; K. pneumoniae BEL, OXA-48) was 4 µg/mL (≈ 8.41 µM). The MIC ([4]; K. pneumoniae BER (28), porin deficiency associated with ESBL, TEM) was 0.75 µg/mL (≈ 1.58 µM), the MIC ([4]; K. pneumoniae BIC (4), OXA-48) was 2 µg/mL (≈ 4.21 µM) and the MIC ([4]; K. pneumoniae CHA (5), OXA-48 + TEM-1) was 1 µg/mL. For the same molecule, the MIC ([4]; K. pneumoniae COO (27), porin deficiency associated with ESBL, CTX-M-15 + SHV-28) was 0.75 µg/mL, the MIC ([4]; K. pneumoniae DIN, NDM-1) was 32 µg/mL (≈ 67.3 µM) and the MIC ([4]; K. pneumoniae EGY, OXA-48 + CTX-M-15) was 3 µg/mL. The MIC ([4]; K. pneumoniae H1516-6 COL (3), KPC-2 + TEM-1 + CTXM-15) was 3 µg/mL, the MIC ([4]; K. pneumoniae HOL, OXA-181 + CTX-M-15) was 1 µg/mL and the MIC ([4]; K. pneumoniae IND, NDM-1 + OXA-1 + CTX-M-15) was 8 µg/mL. For the same molecule, the MIC ([4]; K. pneumoniae MAD (15), IMP-13) was 2 µg/mL (≈ 4.21 µM), the MIC ([4]; K. pneumoniae MAD, VIM-1 + CTX-M-3) was greater than 32 µg/mL and the MIC ([4]; K. pneumoniae OMA (8), OXA-181 + CTXM-15 + OXA-1) was 2 µg/mL. For the same molecule, the MIC ([4]; K. pneumoniae RAM, OXA-48) was 2 µg/mL (≈ 4.21 µM), the MIC ([4]; K. pneumoniae SAB, NDM-1) was 8 µg/mL (≈ 16.8 µM) and the MIC ([4]; K. pneumoniae UK (10), NDM-1 + CTX-M-15 + CMY-4 + OXA-1) was 32 µg/mL. The MIC [5] was 0.19 µg/mL (≈ 0.4 µM), the MIC [6] was greater than 32 µg/mL and the MICs range ([7]; ESBL + decreased membrane permeability, K. pneumoniae SHV-2a, n=1) was 2 mg/L. The MICs range ([7]; ESBL + decreased membrane permeability, K. pneumoniae SHV-28, n=1) was 4 mg/L, the MICs range ([7]; ESBLs, K. pneumoniae CTX-M-3, n=1) was 0.12 mg/L and the MICs range ([7]; ESBLs, K. pneumoniae CTX-M-14, n=1) was 0.12 mg/L. The MICs range ([7]; ESBLs, K. pneumoniae CTX-M-15, n=3) was 0.12 mg/L, the MICs range ([7]; K. pneumoniae IMP-1, n=5) was 2 to 4 mg/L and the MICs range ([7]; K. pneumoniae IMP-8, n=2) was 0.5 to 1^ mg/L. It also gave an MICs range ([7]; K. pneumoniae NDM-4, n=1) greater than 32 mg/L, an MICs range ([7]; K. pneumoniae OXA-181, n=2) of 2 to 4 mg/L and an MICs range ([7]; K. pneumoniae VIM-19, n=1) of 16 mg/L. It also gave an MICs range ([7]; Plasmid mediated AmpC or chromosomal AmpC + decreased membrane permeability, K. pneumoniae DHA-1, n=1) greater than 32 mg/L, an MICs range ([7]; Plasmid mediated AmpC or chromosomal AmpC + decreased membrane permeability, K. pneumoniae DHA-2, n=1) of 0.5 mg/L and an MICs range ([8]; E. cloacae GES-5, n=1) greater than 32 mg/L. The MICs range ([8]; E. cloacae IMP-1, n=12) was greater than 32 mg/L, the MICs range ([8]; E. cloacae IMP-8, n=2) was 0.5 to 1^ mg/L and the MICs range ([8]; E. cloacae KPC-2, n=7) was 1.5 to 32 mg/L. It also gave an MICs range ([8]; E. cloacae NDM-1, n=1) of 16 mg/L, an MICs range ([8]; E. cloacae NMC-A, n=1) greater than 32 mg/L and an MICs range ([8]; E. cloacae OXA-48, n=3) of 0.5 to 16 mg/L. It also gave an MICs range ([8]; ESBLs, E. cloacae CTX-M-15, n=3) of 0.12 mg/L, an MICs range ([8]; ESBLs, E. cloacae VEB-1, n=1) of 0.12 mg/L and an MICs range ([9]; E. aerogenes KPC-2, n=1) greater than 32 mg/L. For the same molecule, the MICs range ([9]; Plasmid mediated AmpC or chromosomal AmpC + decreased membrane permeability, E. aerogenes Overexpressed cephalosporinase, n=1) was 4 mg/L, the MICs range ([10]; S. marcescens IMP-1, n=2) was greater than 32 mg/L and the MICs range ([10]; S. marcescens IMP-11, n=1) was greater than 32 mg/L. It also gave an MICs range ([10]; S. marcescens KPC-2, n=2) greater than 32 mg/L, an MICs range ([10]; S. marcescens SME-1, n=1) of 4 mg/L and an MICs range ([10]; S. marcescens SME-2, n=1) of 4 mg/L. For the same molecule, the MICs range ([10]; S. marcescens VIM-2, n=1) was greater than 32 mg/L, the MICs range [11] was 1.5 mg/L and the MICs range [12] was greater than 32 mg/L. For the same molecule, the MICs range [13] was 1 mg/L, the MICs range [14] was 0.38 mg/L and the MICs range ([15]; P. rettgeri NDM-1, n=1) was 0.5 mg/L. It also gave an MICs range ([15]; P. rettgeri OXA-181, n=1) of 1 mg/L, an MICs range [16] of 0.12 mg/L and an MICs range [17] of 0.12 mg/L.
